Test results as given in US6794415B2, “Biphenyl compounds and their use as oestrogenic agents” (Aventis Pharma S.A., priority 1996, dated 2004).

Tests used:
[1] = target: T1, Oestrogen Receptor of a Rat's Uterus (ROR) (Rattus norvegicus, UniProt P06211); assay: Oestrogen receptor of a rat's uterus (ROR): displacement of tritiated oestradiol, relative bond affinity; type: binding; conditions: oestradiol = 100; RBA=100(CH)/(CX); rat uterus cytosol, incubation 0° C. for 24 hours
T1 construct: the uteri are removed, then homogenized at 0° C; from tissue; host or cells: rat uterus cytosol (ultracentrifugation supernatant of homogenate)
T1 sequence (P06211 1-600): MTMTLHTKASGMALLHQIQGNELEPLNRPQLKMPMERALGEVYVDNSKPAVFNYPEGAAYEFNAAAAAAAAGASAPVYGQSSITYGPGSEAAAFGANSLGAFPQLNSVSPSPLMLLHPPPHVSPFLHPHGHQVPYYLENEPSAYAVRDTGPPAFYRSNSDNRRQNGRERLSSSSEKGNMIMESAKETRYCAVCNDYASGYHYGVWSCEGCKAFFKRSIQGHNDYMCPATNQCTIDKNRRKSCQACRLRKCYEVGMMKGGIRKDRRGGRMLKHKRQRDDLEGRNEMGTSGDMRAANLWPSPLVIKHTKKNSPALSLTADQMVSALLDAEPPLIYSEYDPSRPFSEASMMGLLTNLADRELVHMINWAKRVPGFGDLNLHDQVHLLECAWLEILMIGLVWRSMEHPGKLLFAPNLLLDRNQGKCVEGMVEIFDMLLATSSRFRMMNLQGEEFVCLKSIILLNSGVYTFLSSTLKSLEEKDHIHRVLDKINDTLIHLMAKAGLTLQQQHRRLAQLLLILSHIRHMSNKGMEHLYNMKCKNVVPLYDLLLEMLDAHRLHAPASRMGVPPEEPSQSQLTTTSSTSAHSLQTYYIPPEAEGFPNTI
Experimental: Oestrogen Receptor of a Rat's Uterus (ROR):
Female rats of 280-300 g and castrated 24 hours beforehand, are sacrificed, the uteri are removed, then homogenized at 0° C., using a teflon-glass Potter in a buffered solution BS (10 mM Tris, 0.25 M saccharose, HCl pH 7.4) (1 g of tissue per 10 ml of BS). The homogenate is then ultracentrifuged (209,000 g×30mn.) at 0° C. The supernatant aliquots thus obtained are incubated at 0° C. for 24 hours, with a constant concentration (2.5 10^−9M) of tritiated oestrodiol in the presence of increasing concentrations either of unlabelled oestradiol (0-1000×10^−9M), or of unlabelled product to be tested […]. The concentration of bound tritiated oestradiol (B) is then measured in each incubate by the carbon-dextran adsorption technique.
(§1) Calculation of the Relative Bond Affinity (RBA):
(§2) The following two curves are drawn: the percentage of bound tritiated hormone 100×B/B0 as a function of the logarithm of the concentration of unlabelled reference hormone or as a function of the concentration of unlabelled test product.
(§3) The straight line of the equation
(§4) B0=concentration of bound tritiated hormone in the absence of any unlabelled product.
(§5) B=concentration of bound tritiated hormone in the presence of a concentration X of unlabelled product.
(§6) B min=concentration of bound tritiated hormone for an incubation of this tritiated hormone at a concentration (T) in the presence of a large excess of unlabelled reference hormone (1000×10^−9M) for the human receptor.
(§7) The intersections of the straight line I50 and the curves allow the evaluation of the concentrations of unlabelled reference hormone (CH) and of the unlabelled test product (CX) which inhibit by 50% the binding of the tritiated hormone on the receptor.
(§8) The relative bond affinity (RBA) of the test product is calculated by the equation: RBA=100(CH)/(CX).

[2] = target: T2, recombinant human oestrogen receptor (HOR) (Homo sapiens, UniProt P03372); assay: Human oestrogen receptor (HOR): displacement of tritiated oestradiol, relative bond affinity; type: binding; conditions: oestradiol = 100, RBA=100(CH)/(CX); for HOR short t relative bond affinity (RBA): incubation 0° C. for 3 hours (short t); for HOR long t relative bond affinity (RBA): incubation 0° C. for 24 hours (long t)
T2 construct: made in house; host or cells: SF9 insect cells (ATCC CRL1711), baculovirus
T2 sequence (P03372 1-595): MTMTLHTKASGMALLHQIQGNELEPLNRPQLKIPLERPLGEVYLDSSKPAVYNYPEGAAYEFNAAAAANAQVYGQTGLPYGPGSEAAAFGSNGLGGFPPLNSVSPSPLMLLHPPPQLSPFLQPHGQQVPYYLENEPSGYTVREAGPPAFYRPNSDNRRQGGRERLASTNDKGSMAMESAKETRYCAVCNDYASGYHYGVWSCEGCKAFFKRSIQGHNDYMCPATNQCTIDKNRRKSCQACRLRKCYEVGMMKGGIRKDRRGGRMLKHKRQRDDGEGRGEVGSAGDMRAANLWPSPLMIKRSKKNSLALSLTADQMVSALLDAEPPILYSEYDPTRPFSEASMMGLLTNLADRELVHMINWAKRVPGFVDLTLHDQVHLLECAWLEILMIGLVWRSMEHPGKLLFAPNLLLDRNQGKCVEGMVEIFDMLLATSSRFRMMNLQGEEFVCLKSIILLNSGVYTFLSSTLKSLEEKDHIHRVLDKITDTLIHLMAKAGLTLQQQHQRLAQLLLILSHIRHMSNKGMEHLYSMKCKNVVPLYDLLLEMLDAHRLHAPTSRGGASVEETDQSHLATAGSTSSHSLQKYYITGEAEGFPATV
Description: Human Oestrogen Receptor (HOR)
A cytosolic extract of SF9 cells containing the recombinant human oestrogen receptor is obtained by overexpression in an insect-Baculovirus cell system, according to the general methodology described by N. R. WEBB et al. (Journal of Methods in Cell and Molecular Biology, (1990) Vol.2 No. 4, 173-188) and the application of which is described for the expression of human hormonal receptors, for example the human glucocorticoid receptor (G. SRINIVASAN et al. Molecular Endocrinology (1990) vol 4 No. 2 209-216).
The BaculoGold Transfection Kit (PharMingen, reference 21000K) is used to generate the recombinant baculovirus containing the cDNA fragment described in the expression vector HEGO by L. TORA et al. (The EMBO Journal (1989) vol. 8 No. 7 1981-1986), containing the coding region for the wild-type human oestrogen receptor with a glycine in position 400.
The recombinant virus thus obtained is used to express the oestrogen receptor in the SF9 insect cells (ATCC CRL1711), according to the known methodology mentioned previously.
2*10^7 SF9 cells are cultured in a 175 cm^2 “Falcon” flask in the TNM-FH “SIGMA” medium supplemented by 10% of foetal calf serum (FCS) and by 50 microgram/ml of gentamycin. After infection then incubation at 27° C. for 40 to 42 hours, the cells are lysed in 1 ml of lysis buffer (Tris 20 mM-HCl pH8, EDTA 0.5 mM, DTT 2 mM, Glycerol 20%, KCl 400 mM) with a freezing-thawing cycle which is repeated another two times. The supernatant, containing the recombinant human oestrogen receptor is kept in liquid nitrogen by 0.5 ml doses.
The supernatant is incubated at 0° C. for 24 hours (long t) or 3 hours (short t) with a constant concentration (T) of tritiated oestradiol in the presence of increasing concentrations of either unlabelled oestradiol (0-1000×10^−9M), or of unlabelled product to be tested (0-25000×10^−9M). The concentration of bound tritiated oestradiol (B) is then measured in each incubate by the technique of adsorption with carbon dextran.
as §1, §2, §3, §4, §5, §6, §7, §8

## Cc1c(C(C)O)cc(C(C)C)c(-c2ccc(O)cc2)c1Cl (stereo not drawn) [Example 13, 1-[2-chloro-4′-hydroxy-3-methyl-6-(1-methylethyl)-(1,1′-biphenyl-4-yl)]-ethanol]
[1]
  ROR relative bond affinity (RBA): 0.8
[2]
  HOR short t relative bond affinity (RBA): 24
  HOR long t relative bond affinity (RBA): 7.5

## O=[N+]([O-])c1cc(CO)cc([N+](=O)[O-])c1-c1ccc(O)cc1 [Example 30, 2,6-dinitro-4′-hydroxy-(1,1′-biphenyl)-4-methanol]
[1]
  ROR relative bond affinity (RBA): 2
[2]
  HOR short t relative bond affinity (RBA): 24
  HOR long t relative bond affinity (RBA): 5

## OCc1cc(Cl)c(-c2ccc(O)cc2)c(C(F)(F)F)c1 [Example 7, 2-chloro-4′-hydroxy-6-(trifluoromethyl)-(1,1′-biphenyl)-4-methanol]
[1]
  ROR relative bond affinity (RBA): 9.5
[2]
  HOR long t relative bond affinity (RBA): 50

## O=[N+]([O-])c1cc(CO)cc(Br)c1-c1ccc(O)cc1 [Example 18, 2-bromo-4′-hydroxy-6-nitro-(1,1′-biphenyl)-4-methanol]
[1]
  ROR relative bond affinity (RBA): 5
[2]
  HOR long t relative bond affinity (RBA): 34

## CC(C)c1cc(CO)cc(Cl)c1-c1ccc(O)cc1 [Example 4, 2-chloro-4′-hydroxy-6-(1-methylethyl)-(1,1′-biphenyl)-4-methanol]
[1]
  ROR relative bond affinity (RBA): 4
[2]
  HOR long t relative bond affinity (RBA): 22

## Cc1ccc(-c2ccc(O)cc2)c(C(F)(F)F)c1 [Example 29, 4′-methyl-2′-trifluoromethyl-(1,1′-biphenyl)-4-ol]
[1]
  ROR relative bond affinity (RBA): 0.15
[2]
  HOR long t relative bond affinity (RBA): 0.6

## OCc1cc(Cl)c(-c2ccc(O)c(Cc3ccccc3)c2)c(Cl)c1 [Example 36, 2,6-dichloro-4′-hydroxy-5′-(phenylmethyl)-(1,1′-biphenyl)-4-methanol]
[1]
  ROR relative bond affinity (RBA): 8
[2]
  HOR long t relative bond affinity (RBA): 0.07

## OCc1cc(Cl)c(-c2ccc(O)cc2)c(Cl)c1 [Example 24, 2,6-dichloro-4′-hydroxy-(1,1′-biphenyl)-4-methanol]
[1]
  ROR relative bond affinity (RBA): 3
[2]
  HOR short t relative bond affinity (RBA): 104
  HOR long t relative bond affinity (RBA): 35

## OCc1c(Cl)c(Cl)c(-c2ccc(O)cc2)c(Cl)c1Cl [Example 26, 4′-hydroxy-2.3,5,6-tetrachloro-(1,1′-biphenyl)-4-methanol]
[2]
  HOR long t relative bond affinity (RBA): 5.5

## O=Cc1cc(Cl)c(-c2ccc(O)cc2)c(Cl)c1 [Example 25, 2,6-dichloro-4′-hydroxy-(1,1′-biphenyl)-4-carboxaldehyde]
[2]
  HOR short t relative bond affinity (RBA): 12
  HOR long t relative bond affinity (RBA): 5

## OCc1cc(Br)c(-c2ccc(O)cc2)c(Br)c1 [Example 2, 2,6-dibromo-4′-hydroxy-(1,1′-biphenyl)-4-methanol]
[1]
  ROR relative bond affinity (RBA): 12.5
[2]
  HOR short t relative bond affinity (RBA): 425
  HOR long t relative bond affinity (RBA): 74

## O=Cc1cc(Br)c(-c2ccc(O)cc2)c(Br)c1 [Example 1, 2,6-dibromo-4′-hydroxy-(1,1′-biphenyl)-4-carboxaldehyde]
[2]
  HOR long t relative bond affinity (RBA): 5.5

## CCc1cc(C(C)C)c(-c2ccc(O)cc2)cc1C [Example 6, 4′-ethyl-5′-methyl-2′-(1-methylethyl)-(1,1′-biphenyl)-4-ol]
[2]
  HOR long t relative bond affinity (RBA): 4.5

## OCc1ccc(-c2ccc(O)cc2)c(C(F)(F)F)c1 [Example 28, 4′-hydroxy-2-trifluoromethyl-(1,1′-biphenyl)-4-methanol]
[1]
  ROR relative bond affinity (RBA): 2
[2]
  HOR short t relative bond affinity (RBA): 33
  HOR long t relative bond affinity (RBA): 8
